The text below walks through data of article PMC10952572, “Improved PIEZO1 agonism through 4‐benzoic acid modification of Yoda1” (British Journal of Pharmacology, 2023).

One may read the EC50 as the midpoint of the concentration-response curve.

Data set [1] in a line: Kinetic and thermodynamic solubility assays (Malvern Panalytical). Format: physicochemical. Particulars: phosphate buffer, physiological pH 7.4; compared with Yoda1. The method, then: Kinetic and thermodynamic solubility assays were also performed by Malvern Panalytical (UK). Briefly, 1000 μl of 0.1 M phosphate buffer (pH 7.4) received either 25 μl of a 10 mM DMSO stock of test compound (for kinetic solubility assays) or 1 mg of test compound (for thermodynamic solubility assays). The mixtures were shaken on an orbital mixer to reach equilibrium for 1 or 24 h, respectively. The equilibrated solution was centrifuged, and the supernatant was removed to a fresh vial and then re‐centrifuged. High‐ and low‐dilution samples were prepared from the secondary supernatant and quantified by LC–MS/MS against a standard curve.

The next data set concerns the target T1, hPIEZO1 (Homo sapiens, UniProt Q92508).
T1 construct: expressed in transfected cells
The experiment in a line: Automated patch clamp (SyncroPatch 384) on hPIEZO1-TREx cells. Type of data set: cell-based. The note with it: for Effect on M-Stim-evoked currents: hPIEZO1-TREx cells, −80 mV; for Cells responding to activation: hPIEZO1-TREx, 10 μM KC157, 10 μM Yoda1, 5 μM KC159. The method, then: For automated patch clamp, cells were cultured and harvested according to Nanion's standard cell culture protocol (Obergrussberger et al., [2014]). hPIEZO1‐TREx cells were induced to express PIEZO1 by incubation with 0.5 μg·ml^−1 tetracycline 24 h prior to experiments. Whole‐cell patch‐clamp recordings were conducted on HEK‐TREx, hPIEZO1‐TREx and mPIEZO1‐TREx cells according to Nanion's standard procedure for the SyncroPatch 384, using medium resistance (4–5 MΩ) chips (Obergrussberger et al., [2018]). Cells were held at −80 mV for the duration of the experiment. The channel was activated by mechanical forces in the absence and presence of the agonists. To stimulate PIEZO1 channels mechanically (mechanical stimulation [M‐Stim]), we dispensed 20 μl of solution (either reference or agonist) locally to the cell at a pipetting speed of 110 μl·s^−1 in synchrony with a triggered recording of the current response at the holding potential. The internal solution contained 110 mM KF, 10 mM KCl, 10 mM NaCl, 10 mM HEPES and 10 mM EGTA, pH adjusted to 7.2 with KOH, and the external solution contained 140 mM NaCl, 4 mM KCl, 2 mM CaCl2, 1 mM MgCl2, 5 mM glucose, 10 mM HEPES, pH adjusted to 7.4 with NaOH, and 0.1% DMSO to match the DMSO concentration of the compound solutions. For PIEZO1 stimulation, KC159, KC157 or Yoda1 was applied directly onto the cells via a pipette application. One chip of the SyncroPatch 384 is equipped with 384 wells served by 384 robotic pipettes and connected to 384 individual amplifiers, allowing us to test 384 distinct cells in one experiment. We tested the effect of each specified analogue on mPIEZO1‐, hPIEZO1‐ and untransfected HEK‐TREx cells in parallel and in comparison to mechanical and Yoda1 stimulation. To estimate the EC50 values, four concentrations of each agonist were tested per cell line in one chip, with each cell receiving single concentrations, and the concentration–response curve was calculated across the whole chip (384 cells). Only cells with seal resistance >0.3 GΩ, series resistance <20 MΩ and cell capacitance >5 and <40 pF were used for analysis.
DataControl 384 (Nanion Technologies GmbH), Prism 9 (GraphPad) and OriginPro 2020 (OriginLab) were used for all analysis of automated patch‐clamp data. For manual and automated patch‐clamp data, n represents the number of cells recorded from successfully in each experimental condition, sampled from two to six batches of cells or 384‐well chips in automated patch clamp. For manual patch‐clamp experiments, each cell/patch recording (n) is considered as an independent experiment because each was made independently at a separate time, using a separate coverslip of cells and using a separate patch pipette. In some instances, more than one such independent recording was made from the same batch of cultured or transfected cells. These n values are considered as independent. Each cell was studied alone and from a separate coverslip in the case for manual patch clamp. To estimate the EC50 values of the agonists in automated patch‐clamp studies, the peak current in the presence of the agonist was normalised to the peak current in the presence of the reference solution. Single‐point concentration–response curves were fitted with a standard Hill equation to estimate EC50 values. P < 0.05 was deemed significant. For automated patch‐clamp experiments, we included some data for n < 5 (Figure 7a,b). […] Such replicates are a feature of, and a rationale for, this automated technology, which is an innovation for the type of research shown here but already commonly used in the pharmaceutical industry for other ion channel studies to increase throughput and avoid waste from large volumes of independent cell cultures and minimise cost from expensive specially engineered plates. As a general strategy, our study used multiple independent technical approaches to address the same or similar questions. […]
Background: Patch clamp records ionic current or voltage across a cell membrane.

T1 sequence (Q92508 whole entry): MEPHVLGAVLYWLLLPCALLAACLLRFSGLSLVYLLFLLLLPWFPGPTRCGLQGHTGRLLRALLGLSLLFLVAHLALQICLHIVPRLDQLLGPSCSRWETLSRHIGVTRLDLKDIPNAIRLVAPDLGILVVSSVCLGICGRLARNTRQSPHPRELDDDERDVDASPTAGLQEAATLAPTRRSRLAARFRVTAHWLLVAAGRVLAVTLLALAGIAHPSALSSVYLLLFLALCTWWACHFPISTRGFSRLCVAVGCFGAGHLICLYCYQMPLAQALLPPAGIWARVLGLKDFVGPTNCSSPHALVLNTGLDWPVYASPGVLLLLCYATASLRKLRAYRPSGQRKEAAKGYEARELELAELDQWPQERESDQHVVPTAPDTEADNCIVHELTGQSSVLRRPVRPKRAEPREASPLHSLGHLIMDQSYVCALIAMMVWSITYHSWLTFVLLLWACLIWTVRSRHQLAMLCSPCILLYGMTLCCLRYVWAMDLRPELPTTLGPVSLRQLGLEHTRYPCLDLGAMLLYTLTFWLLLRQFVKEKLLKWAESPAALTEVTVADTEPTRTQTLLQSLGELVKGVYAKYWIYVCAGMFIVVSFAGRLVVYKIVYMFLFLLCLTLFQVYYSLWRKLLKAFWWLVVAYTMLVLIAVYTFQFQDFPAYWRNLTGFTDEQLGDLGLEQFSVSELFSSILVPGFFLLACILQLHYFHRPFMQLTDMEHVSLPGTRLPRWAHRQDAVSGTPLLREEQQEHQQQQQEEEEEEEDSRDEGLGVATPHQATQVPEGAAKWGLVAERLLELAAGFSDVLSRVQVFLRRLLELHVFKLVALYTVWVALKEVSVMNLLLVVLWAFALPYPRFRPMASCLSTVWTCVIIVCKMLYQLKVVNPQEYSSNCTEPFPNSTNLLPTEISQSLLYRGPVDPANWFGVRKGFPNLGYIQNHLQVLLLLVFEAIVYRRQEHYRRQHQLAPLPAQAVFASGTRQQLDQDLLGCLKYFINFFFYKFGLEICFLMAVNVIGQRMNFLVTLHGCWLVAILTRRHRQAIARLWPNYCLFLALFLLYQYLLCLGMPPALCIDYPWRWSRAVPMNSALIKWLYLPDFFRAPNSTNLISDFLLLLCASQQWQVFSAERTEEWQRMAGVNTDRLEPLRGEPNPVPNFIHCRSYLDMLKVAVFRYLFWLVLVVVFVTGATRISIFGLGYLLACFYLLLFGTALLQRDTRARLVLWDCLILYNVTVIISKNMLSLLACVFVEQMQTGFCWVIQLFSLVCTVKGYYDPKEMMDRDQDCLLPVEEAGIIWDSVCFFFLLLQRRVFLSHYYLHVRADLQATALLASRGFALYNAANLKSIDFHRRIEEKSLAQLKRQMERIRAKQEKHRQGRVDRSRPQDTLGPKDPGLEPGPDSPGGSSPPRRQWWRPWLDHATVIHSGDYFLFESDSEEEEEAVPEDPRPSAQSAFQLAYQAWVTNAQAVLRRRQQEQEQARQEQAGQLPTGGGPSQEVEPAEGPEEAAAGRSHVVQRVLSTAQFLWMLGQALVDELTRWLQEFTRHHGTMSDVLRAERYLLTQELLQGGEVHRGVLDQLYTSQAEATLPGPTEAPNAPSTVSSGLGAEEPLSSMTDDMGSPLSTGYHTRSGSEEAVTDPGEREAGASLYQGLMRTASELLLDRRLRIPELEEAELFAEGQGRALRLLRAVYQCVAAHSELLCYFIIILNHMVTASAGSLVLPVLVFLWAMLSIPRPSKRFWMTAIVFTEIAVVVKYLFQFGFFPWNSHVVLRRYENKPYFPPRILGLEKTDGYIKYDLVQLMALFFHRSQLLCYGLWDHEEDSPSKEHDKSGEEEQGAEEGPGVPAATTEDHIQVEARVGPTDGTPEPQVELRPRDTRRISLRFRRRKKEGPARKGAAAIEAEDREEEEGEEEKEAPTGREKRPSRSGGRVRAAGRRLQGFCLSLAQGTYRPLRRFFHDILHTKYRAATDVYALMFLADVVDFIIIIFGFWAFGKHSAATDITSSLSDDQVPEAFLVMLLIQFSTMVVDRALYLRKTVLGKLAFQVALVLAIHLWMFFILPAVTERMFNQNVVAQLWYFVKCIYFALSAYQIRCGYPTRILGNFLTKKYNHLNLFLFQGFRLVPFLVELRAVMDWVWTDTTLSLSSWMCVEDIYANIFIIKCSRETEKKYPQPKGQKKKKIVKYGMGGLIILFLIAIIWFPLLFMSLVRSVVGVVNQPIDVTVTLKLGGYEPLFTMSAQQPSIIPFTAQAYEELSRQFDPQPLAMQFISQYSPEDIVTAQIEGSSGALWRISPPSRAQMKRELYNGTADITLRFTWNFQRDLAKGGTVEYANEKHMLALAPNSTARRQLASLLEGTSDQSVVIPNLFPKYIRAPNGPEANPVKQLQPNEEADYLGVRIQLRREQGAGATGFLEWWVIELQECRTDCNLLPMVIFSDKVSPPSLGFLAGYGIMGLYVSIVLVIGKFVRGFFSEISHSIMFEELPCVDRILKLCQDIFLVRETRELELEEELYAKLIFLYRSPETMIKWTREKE

For the compound `O=C([O-])c1ccc(-c2nnc(SCc3c(Cl)cccc3Cl)s2)cc1.[K+]` [KC289], in data set [1], the Kinetic solubility entry was “better solubility than Yoda1” and the Thermodynamic solubility entry was “better solubility than Yoda1”.
`O=C(O)c1ccccc1-c1nnc(SCc2c(Cl)cccc2Cl)s1` [KC157]: the “Effect on M-Stim-evoked currents” value on hPIEZO1 (10 μM) is recorded as “mostly fails to evoke responses”. For the same compound, on hPIEZO1, the “Cells responding to activation” value is reported as “largely ineffective”.
Turning to `O=C(O)c1ccc(-c2nnc(SCc3c(Cl)cccc3Cl)s2)cc1` [KC159], in data set [1], the Kinetic solubility entry was “better solubility than Yoda1” and the Thermodynamic solubility entry is listed as “better solubility than Yoda1”. In addition, the “Effect on M-Stim-evoked currents” value on hPIEZO1 (10 μM) is “greatly amplifies the currents”. Further, the “Sustained component of current as % of peak current” value at hPIEZO1 (10 μM, hPIEZO1 cells, mean ± SD) is given as −4 ± 2%. Besides, on hPIEZO1 (hPIEZO1, normalised peak current, maximum response not certain, read-out: EC50 (estimate)), the EC50 was approximately 1670 nM. For the same compound, at hPIEZO1, the “Cells responding to activation” value was “more cells to respond compared with Yoda1”.
